Source: patent US6303641A, “Cyanoamidines as cell proliferation inhibitors” (Leo Pharmaceuticals Products Ltd., priority 1997, dated 2001)

Tests used:
[1] = system: human small cell lung carcinoma (NYH); assay: Inhibition of tumour cell proliferation in vitro ([3H]thymidine incorporation), NYH; format: cell-based; settings: 24 hours, read-out: The median inhibition concentration (IC50, nM) of NYH
Procedure: (§1) The inhibition of tumour cell proliferation was studied using different types of human cancer cell lines. The cell lines under investigation were small cell lung carcinoma (NYH), and breast cancer (MCF-7) using the following general procedure.
(§2) The cells were cultured in vitro for 24 hours in the presence of the compound under investigation. DNA synthesis was measured by incorporation of [3H]thymidine, and the median inhibitory concentrations (IC50) of the compounds were calculated.

[2] = system: human breast cancer (MCF-7); assay: Inhibition of tumour cell proliferation in vitro ([3H]thymidine incorporation), MCF-7; format: cell-based; settings: MCF7, 24 hours, read-out: The median inhibition concentration (IC50, nM) of MCF-7
Procedure: as §1, §2

[3] = system: Yoshida sarcoma cells; assay: Survival of Yoshida tumour-bearing rats (Increased Life Span); format: in vivo, LEW/Mol inbred female rats; settings: once daily from day 3
Procedure: The prolongation of survival time of tumour-bearing rats was studied in LEW/Mol inbred female rats inoculated with Yoshida sarcoma cells in a number of 2×10^7 cells. Tumour-bearing rats (6 animals per group) were dosed orally once daily from day 3 after the transfer of tumour cells and until death or until the body-weights had increased by 10% as a consequence of tumour proliferation. The mean survival day of treated versus non-treated rats is used to calculate ILS (Increased Life Span). ILS=((mean treated/mean control)-1)*100%.

Row | Compound | IC50 [1] | IC50 [2] | Increased life span (ILS) ([3]; 10 mg/kg p.o.) | Increased life span (ILS) ([3]; 20 mg/kg p.o.) | Increased life span (ILS) ([3]; 30 mg/kg p.o.) | Increased life span (ILS) ([3]; 50 mg/kg p.o.)
1 | N#CN=C(NCCCCCCOc1ccc(Cl)cc1)c1cccnc1 [Example no. 1, N^2 -Cyano-N^1-(6(4-chlorophenoxy)hexyl)-3-pyridinecarboxamidine] | 39 nM | 350 nM | 60% | 90% | 102% | 
2 | CCCCCCCCNC(=NC#N)c1cccnc1 [Prior art A, N^2 -Cyano-N^1-octyl-3-pyridinecarboxamidine, reference compound] |  | 10000 nM |  |  |  | 
3 | COc1ccccc1OCCCCCCNC(=NC#N)c1cccnc1 [Example no. 2, N^2 -Cyano-N^1-(6-(2-methoxyphenoxy)hexyl)-3-pyridinecarboxamidine] | 340 nM | 540 nM |  |  |  | 
4 | N#CNC(=Nc1ccncc1)NCCCCCOc1ccccc1 [Prior art C, N-Cyano-N'-(5-phenoxypentyl)-N"-4-pyridylguanidine, reference compound] | 45 nM | 250 nM |  |  |  | 35%
5 | N#CNC(=Nc1ccncc1)NCCCCOc1ccccc1 [Prior art B, N-Cyano-N'-(4-phenoxybutyl)-N"-4-pyridylguanidine, reference compound] | 380 nM | 920 nM |  |  |  | 
6 | N#CN=C(NCCCCCCOc1ccc2c(c1)OCO2)c1cccnc1 [Example no. 3, N^2 -Cyano-N^1-(6-(3,4-methylenedioxyphenoxy)hexyl)-3-pyridinecarboxamidine] | 350 nM | 740 nM |  |  |  | 
